Reference: patent US20180362485A1, “N-HYDROXYFORMAMIDE COMPOUNDS AND COMPOSITIONS COMPRISING THEM FOR USE AS BMP l, TLL1 AND/OR TLL2 INHIBITORS” (GlaxoSmithKline Intellectual Property (No. 2) Limited, priority 2015, published 2018)

Molecular target: T1, human TLL1 (Homo sapiens, UniProt O43897, I156V/N221S/V284A)
T1 construct: a natural variant of full length native human TLL1 (NM_012464.4); made in house
T1 sequence (O43897 148-1013 I156V/N221S/V284A): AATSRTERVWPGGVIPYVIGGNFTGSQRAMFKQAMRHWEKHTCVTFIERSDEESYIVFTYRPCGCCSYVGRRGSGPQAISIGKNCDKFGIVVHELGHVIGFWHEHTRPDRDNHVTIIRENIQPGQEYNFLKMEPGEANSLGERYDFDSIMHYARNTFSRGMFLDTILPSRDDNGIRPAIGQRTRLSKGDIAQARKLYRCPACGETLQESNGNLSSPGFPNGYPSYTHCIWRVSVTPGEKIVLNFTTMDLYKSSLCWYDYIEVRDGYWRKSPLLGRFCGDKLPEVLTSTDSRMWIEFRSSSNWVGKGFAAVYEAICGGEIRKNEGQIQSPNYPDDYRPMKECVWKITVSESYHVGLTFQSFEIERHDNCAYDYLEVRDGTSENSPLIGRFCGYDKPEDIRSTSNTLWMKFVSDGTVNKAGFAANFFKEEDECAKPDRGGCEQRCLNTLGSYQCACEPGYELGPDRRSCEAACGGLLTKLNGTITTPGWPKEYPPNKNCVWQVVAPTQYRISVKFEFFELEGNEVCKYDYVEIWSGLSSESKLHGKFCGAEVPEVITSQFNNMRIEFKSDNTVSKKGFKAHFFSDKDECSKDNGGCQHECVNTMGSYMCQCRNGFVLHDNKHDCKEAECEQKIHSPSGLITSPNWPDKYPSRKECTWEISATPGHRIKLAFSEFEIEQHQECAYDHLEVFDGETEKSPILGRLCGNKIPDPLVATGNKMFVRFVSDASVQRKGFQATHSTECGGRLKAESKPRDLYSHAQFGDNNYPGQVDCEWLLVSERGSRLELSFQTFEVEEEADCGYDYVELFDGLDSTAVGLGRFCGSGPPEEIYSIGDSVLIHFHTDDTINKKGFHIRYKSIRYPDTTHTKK
Assay: Enzyme inhibition assay for human TLL1
Assay type: biochemical
Conditions: 2 nM TLL1, 0.8 μM promyostatin peptide substrate; read-out: pIC50, TLL1 enzyme inhibition assay (converted)
Excerpt: Buffer components are purchased from Sigma-Aldrich (St. Louis, Mo.) or an equivalent supplier. The promyostatin peptide substrate is custom synthesized by American Peptide Company (Sunnyvale, Calif.) using the myostatin protein sequence (Uniprot accession number 014793) surrounding the cleavage site reviewed in Hopkins, D. R., et al., 2007 Matrix Biology, 26, 508-523. The procollagen peptide substrate used in the high enzyme BMP1 cleavage assay is custom synthesized by 21st Century Biochemicals (Marlboro, Mass.) using the procollagen Iα protein sequence (Uniprot accession number P02452) surrounding the cleavage site reviewed in Hopkins, D. R., et al., 2007 Matrix Biology, 26, 508-523.
The DNA sequence encoding a natural variant of full length native human TLL1 (NM_012464.4) containing three amino acid substitutions I156V, N221S, V284A is amplified from human heart and brain cDNA and subcloned into the pCDN expression vector. The plasmid is electroporated into CHOE1A cells. […]
Inhibition of human TLL1 and TLL2 recombinant enzymes is measured in 10 ul endpoint assays in 384-well format using the same promyostatin peptide substrate employed in the above Enzyme Inhibition Assay for human BMP1. […] TLL1 and TLL2 reactions are quenched with 5 μl of 0.5 M EDTA and plates are read on a ViewLux (Perkin Elmer) multilabel plate reader using a 480 nm excitation filter and 540 nm emission filter. […]

IC50: < 398 nM
SMILES: CCCCC[C@@H](C(=O)NCNC(=O)c1ccc(-c2ccc(C(=O)O)cc2)o1)[C@@H](CC)N(O)C=O [WO2015/104684 Example 71, 4-(5-((((R)-2-((R)-1-(N-hydroxyformamido)propyl)heptanamido)methyl)carbamoyl)furan-2-yl)benzoic acid]
